Experimental data published in US20240366589A1, “NHE3-BINDING COMPOUNDS AND METHODS FOR INHIBITING PHOSPHATE TRANSPORT” (Ardelyx, Inc., priority 2013, published 2024).

How the values were obtained:
human NaP2b (SLC34A2) = target: T1, human NaP2b (SLC34A2) (Homo sapiens, UniProt O95436); assay: Cell-based assay of NaP2b activity (33P uptake, transfected HEK293 cells), human NaP2b isoform a; conditions: Table E5; HEK293, 33P uptake; dihydrochloride salt
T1 construct: host or cells: HEK293 cells (ATCC), Lipofectamine 2000, transient
T1 sequence (O95436 1-690): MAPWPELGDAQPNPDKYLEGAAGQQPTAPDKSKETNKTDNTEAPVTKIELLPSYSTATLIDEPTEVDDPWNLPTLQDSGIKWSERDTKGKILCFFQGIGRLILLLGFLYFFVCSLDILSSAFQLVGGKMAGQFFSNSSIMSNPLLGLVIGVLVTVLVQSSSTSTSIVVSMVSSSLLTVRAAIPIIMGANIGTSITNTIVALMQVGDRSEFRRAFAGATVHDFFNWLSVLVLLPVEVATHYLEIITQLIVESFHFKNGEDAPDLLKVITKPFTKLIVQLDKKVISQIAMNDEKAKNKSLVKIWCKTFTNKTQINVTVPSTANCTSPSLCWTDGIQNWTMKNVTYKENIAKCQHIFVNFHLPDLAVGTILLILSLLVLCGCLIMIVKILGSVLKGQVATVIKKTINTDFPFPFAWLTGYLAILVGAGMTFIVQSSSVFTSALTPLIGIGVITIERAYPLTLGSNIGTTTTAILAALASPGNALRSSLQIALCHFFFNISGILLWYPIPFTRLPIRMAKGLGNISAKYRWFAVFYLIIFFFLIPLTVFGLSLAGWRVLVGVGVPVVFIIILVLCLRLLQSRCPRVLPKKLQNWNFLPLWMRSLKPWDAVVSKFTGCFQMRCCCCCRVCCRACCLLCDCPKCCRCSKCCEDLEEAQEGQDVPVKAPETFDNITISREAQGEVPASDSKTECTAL
Protocol: Cell-based assay of NaP2b activity. The rate of phosphate (Pi) uptake into cells was measured using a modification of a literature method (see Mohrmann et al. Am. J Phys. 250(3 pt 1):G323-30, 1986). Briefly, HEK293 cells were transiently transfected with an expression clone encoding either rat or human NaP2b. The next day, transfected cells were treated with a pharmacological agent to minimize endogenous PiT-mediated phosphate transport activity, such that the only remaining sodium-dependent phosphate transport activity is that which was bestowed by introduction of the NaP2b gene. Cells were incubated with radioactive inorganic phosphate in the presence or absence of varying concentrations of test compound. After a short time, cells were washed, harvested, and the amount of hot phosphate taken up in the cells determined by liquid scintillation counting.
HEK293 cells were obtained from the American Type Culture collection and propagated per their instructions. […]
Cells were seeded into 96-well plates at 25,000 cells/well and cultured overnight. […] Cells were lysed by addition of 20 μL 0.1% Tween 80 followed by 100 μL scintillation fluid, and counted using a TopCount (Perkin Elmer). The pIC50 (the negative log of the IC50) values of the test compounds were calculated using GraphPad Prism.

[1] = test system: intestinal phosphate uptake; assay: Pharmacodynamic study with 33P oral challenge in normal function rats; assay type: in vivo, rat; conditions: 8 mM Pi with 33P, 10 mg/kg, dihydrochloride salts, FIG. 1A
Protocol: The compounds identified as Cpds 003, 004, and 005 (from Table E4, as their dihydrochloride salts) were tested for the ability to block intestinal phosphate uptake in rats. Rats were orally challenged with dosing solutions composed of 5 ml/kg (˜1.3 ml) of 8 mM Pi with ^33P and +/−10 mg/kg of test compound. Also included were dosing solutions further composed of either (i) 75 mM glucose+4 mM Ca or (ii) 4 mM Ca.

[2] = test system: absorption of sodium from the intestinal lumen; assay: Fecal form score (FFS) 16 h after oral dose in rats; assay type: in vivo, rat; conditions: in words
Summary of the method: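 Eight-week-old Sprague-Dawley rats (n=6) dosed by oral gavage with compound or water vehicle between 4 and 5 PM, then housed in metabolic cages with food and water ad libitum. At 16 h, fecal form scored 1 (normal pellet) to 5 (liquid streams) by two observers; group mean reported.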

## CN1Cc2c(Cl)cc(Cl)cc2[C@H](c2cccc(S(=O)(=O)NCCOCCOCCNC(=O)NCCCCNC(=O)NCCOCCOCCNS(=O)(=O)c3cccc([C@@H]4CN(C)Cc5c(Cl)cc(Cl)cc54)c3)c2)C1 [Cpd 002]
Human NaP2b (SLC34A2)
  pIC50 Human Nap2B: <4.5

## CN1Cc2c(Cl)cc(Cl)cc2[C@@H](c2cccc(S(=O)(=O)NCCOCCOCCNC(=O)NCCCCNC(=O)NCCOCCOCCNS(=O)(=O)c3cccc([C@H]4CN(C)Cc5c(Cl)cc(Cl)cc54)c3)c2)C1 [Cpd 004]
[1]
  Pi uptake after 33P oral challenge: as potent at reducing Pi uptake as a persistent inhibitor such as Cpd 003
[2]
  effect on fecal form: no significant effect
